Laboratory results published in PubChem BioAssay AID328 (DTP/NCI, 2004).
“And” between values parts separate entries of the source, which are not always exact repeats. Identical values can stand only once. Toxic doses and inconclusive results are not listed. How the source made its calls: active means survival T/C of 150% or more; inactive means T/C below 125% in these data.

Test system: BDF1 mice, P388 leukemia ip, median survival T/C
Experiment: NCI In Vivo Anticancer Drug Screen. Data for tumor model P388 Leukemia (intraperitoneal) in B6D2F1 (BDF1) mice
Settings: endpoint: median survival time, higher = longer survival
Experimental: The antitumor activity of compounds was measured in mice bearing transplantable tumors. Survival or tumor size were measured and the results are expressed as the measurement made in the treated group (T) divided by the measurement made in the vehicle treated control group (C). The tumor model used in this assay is P388 Leukemia (intraperitoneal) in B6D2F1 (BDF1) mice

[1] = dose: 200.0 mg/kg/injection, schedule: Q01DX009 (ip), vehicle: saline with Tween-80
[2] = dose: 100.0 mg/kg/injection, schedule: Q01DX009 (ip), vehicle: saline with Tween-80

Measured: T/C

C(=Nc1ccc(/C=C\c2ccnc3ccccc23)cc1)Nc1ccc(/C=C\c2ccnc3ccccc23)cc1
inactive: dose: 12.5 mg/kg/injection, schedule: Q01DX009 (ip), vehicle: saline with Tween-80 100 % of control | dose: 25.0 mg/kg/injection, schedule: Q01DX009 (ip), vehicle: saline with Tween-80 107 % of control | dose: 50.0 mg/kg/injection, schedule: Q01DX009 (ip), vehicle: saline with Tween-80 100 % of control | [1] 97 % of control

COc1cc(NS(C)(=O)=O)ccc1N
inactive: dose: 100.0 mg/kg/injection, schedule: Q01DX009 (ip), vehicle: Klucel (hydroxypropylcellulose) (HPC) 100 % of control | dose: 100.0 mg/kg/injection, schedule: Q04DX003 (ip), vehicle: Klucel (hydroxypropylcellulose) (HPC) 100 % of control | dose: 200.0 mg/kg/injection, schedule: Q01DX009 (ip), vehicle: Klucel (hydroxypropylcellulose) (HPC) 90 % of control

C[N+](C)(Cc1ccccc1)/N=C(\[O-])Cc1ccccc1
inactive: dose: 50.0 mg/kg/injection, schedule: Q01DX001 (ip), vehicle: saline 109 % of control | dose: 100.0 mg/kg/injection, schedule: Q01DX001 (ip), vehicle: saline 104 % of control

O=c1cccc2n1CC1CNC[C@H]2C1
inactive: dose: 1.5 mg/kg/injection, schedule: Q01DX010 (ip), vehicle: saline 104 % of control | dose: 3.0 mg/kg/injection, schedule: Q01DX010 (ip), vehicle: saline 109 % of control | dose: 6.0 mg/kg/injection, schedule: Q01DX010 (ip), vehicle: saline 109 % of control

Cc1cc(-c2ccccc2)c2ccccc2c1N(CC(=O)O)S(=O)(=O)c1ccccc1
inactive: dose: 44.0 mg/kg/injection, schedule: Q01DX009 (ip), vehicle: saline with Tween-80 95 % of control and 105 % of control | dose: 66.0 mg/kg/injection, schedule: Q01DX009 (ip), vehicle: saline with Tween-80 110 % of control | [2] 95 % of control and 120 % of control | dose: 150.0 mg/kg/injection, schedule: Q01DX009 (ip), vehicle: saline with Tween-80 121 % of control

[N-]=[N+]=NCC(=O)NCc1cnccn1
inactive: dose: 12.5 mg/kg/injection, schedule: Q01DX009 (ip), vehicle: saline 116 % of control | dose: 25.0 mg/kg/injection, schedule: Q01DX009 (ip), vehicle: saline 116 % of control | dose: 100.0 mg/kg/injection, schedule: Q01DX009 (ip), vehicle: saline 106 % of control | dose: 100.0 mg/kg/injection, schedule: Q04DX003 (ip), vehicle: saline 109 % of control | dose: 200.0 mg/kg/injection, schedule: Q01DX009 (ip), vehicle: saline 116 % of control | dose: 200.0 mg/kg/injection, schedule: Q04DX003 (ip), vehicle: saline 108 % of control | dose: 400.0 mg/kg/injection, schedule: Q01DX009 (ip), vehicle: saline 119 % of control | dose: 400.0 mg/kg/injection, schedule: Q04DX003 (ip), vehicle: saline 109 % of control

CCOC(=O)C(CCCCC(NC(C)=O)(C(=O)OCC)C(=O)OCC)(NC(C)=O)C(=O)OCC
inactive: [2] 95 % of control | [1] 100 % of control | dose: 400.0 mg/kg/injection, schedule: Q01DX009 (ip), vehicle: saline with Tween-80 104 % of control

CNC(=S)N/N=C(/C)CCc1c(C)nn(C(=S)NC)c1C
inactive: dose: 150.0 mg/kg/injection, schedule: Q04DX003 (ip), vehicle: Klucel (hydroxypropylcellulose) (HPC) 112 % of control | dose: 225.0 mg/kg/injection, schedule: Q04DX003 (ip), vehicle: Klucel (hydroxypropylcellulose) (HPC) 112 % of control | dose: 335.0 mg/kg/injection, schedule: Q04DX003 (ip), vehicle: Klucel (hydroxypropylcellulose) (HPC) 108 % of control

CCCCCCCCCC(=O)NO
inactive: dose: 100.0 mg/kg/injection, schedule: Q01DX001 (ip), vehicle: saline sonified 100 % of control | dose: 200.0 mg/kg/injection, schedule: Q01DX001 (ip), vehicle: saline sonified 100 % of control | dose: 400.0 mg/kg/injection, schedule: Q01DX001 (ip), vehicle: saline sonified 100 % of control

c1ccc2cc(Nc3ccc(Nc4ccc5ccccc5c4)cc3)ccc2c1
inactive: dose: 100.0 mg/kg/injection, schedule: Q01DX001 (ip), vehicle: Klucel (hydroxypropylcellulose) (HPC) 100 % of control | dose: 200.0 mg/kg/injection, schedule: Q01DX001 (ip), vehicle: Klucel (hydroxypropylcellulose) (HPC) 91 % of control | dose: 400.0 mg/kg/injection, schedule: Q01DX001 (ip), vehicle: Klucel (hydroxypropylcellulose) (HPC) 95 % of control

ClCCN(CCCl)c1ccc(/C=C\c2ccnc3ccccc23)cc1
inactive: [2] 104 % of control | [1] 86 % of control
